# Assay results from patent publication US20240293367A1, “METHODS OF TREATING DISORDERS WITH A […]” (Cybin IRL Limited, priority 2023, published 2024).
# Where a name gives a salt, the structure may show the parent alone. Read-outs that look alike come from different tables or passages of the source.
# Key:
# MDD patients = conditions: cited from earlier work; for placebo subtracted difference in LSM change from baseline on MADRS score: adjunctive to antidepressants; for placebo subtracted difference in (LSM) change from baseline MADRS total score: pivotal clinical studies, package inserts
# [1] = psilocin after psilocybin, Studerus et al. 2011; cited from earlier work
# [2] = 28-day (4-week GLP) toxicology study in dogs, toxicokinetic exposure; conditions: dog, in vivo, 0.5 mg/kg; internal 4-week GLP toxicology study; read-out: Dog Cmax at 0.5 mg/kg
# Excerpt: The exposure limits will be applied on mean values within a cohort.
# [3] = female, rat, in vivo, 40 mg/kg
# [4] = Clinical PD of psilocin after psilocybin (VAS-Any drug effect, MEQ30, 5D-ASC versus psilocin Cmax); assay type: in vivo, human
# Excerpt: To evaluate potential psychedelic effects at various doses of psilocin-d10, data were summarized/modeled from published literature for psilocin after psilocybin administration.
# First, the VAS—Any drug effect score was modeled based on data from Holze et al. 2022 using a linear effect relationship to determine psilocin plasma concentrations in which a VAS—Any drug effect score of 20, 40, 60, and 80 mm was reached. This relationship is presented graphically in FIG. 4, based on the extraction of mean PK and PD data from the figures in Holze et al. 2022. Here, a linear concentration-effect relationship was identified with no evidence of hysteresis. As is evident from this modeled linear concentration-effect relationship according to Holze et al. 2022 (y=0.17+3.9x), a psilocin plasma concentration of about 15.34 ng/ml is the predicted amount required to achieve VAS-Any drug effect scores above 60 mm, a psilocin plasma concentration of about 17.9 ng/ml is the predicted amount required to achieve VAS-Any drug effect scores above 70 mm, and a psilocin plasma concentration of about 20.47 ng/ml is the predicted amount required to achieve a VAS-Any drug effect score of 80 mm.
# This modeled relationship between psilocin plasma concentration and VAS-Any drug effect score is also in agreement with reported literature studies relating plasma psilocin concentrations (μg/L) to neocortical serotonin 5-HT2A receptor occupancy % and subjective intensity of the psychedelic experience (see Madsen MK, Fisher PM, Burmester D, et al (2019). Psychedelic effects of psilocybin correlate with serotonin 2A receptor occupancy and plasma psilocin levels. Neuropsychopharmacology, 44:1328-34), albeit the Madsen et al. study uses a VAS scoring system related specifically to psychedelic effects. The psilocin concentrations needed to reach the plateau in receptor occupancy and the required VAS scores (psychedelic effects) can be seen graphically in FIG. 5 and FIGS. 6A-6B, which are reproduced from Madsen et al. 2019 (FIGS. 3 and 4, respectively, in Madsen et al. 2019). […]
# [5] = linear model of Holze et al. 2022 data
structure (smiles),measurement,setting,value
"CN(C)CCc1c[nH]c2ccccc12 [N,N-dimethyltryptamine (DMT), N,N-dimethyltryptamine]",MADRS CFB reduction over placebo,"MDD patients; intravenous, two-weeks postdose, Small Pharma press release",−7.4
CN(C)C(=O)N[C@H]1CC[C@H](CCN2CCN(c3cccc(Cl)c3Cl)CC2)CC1 [cariprazine],placebo subtracted difference in LSM change from baseline on MADRS score,"MDD patients; 1.5 mg/day fixed dose, 95% CI: −4.2, −0.9",−2.5
same,placebo subtracted difference in LSM change from baseline on MADRS score,"MDD patients; flexible doses of 2-4.5 mg/day, 95% CI: −3.7, −0.6",−2.2
same,placebo subtracted difference in (LSM) change from baseline MADRS total score,MDD patients,−2.2 to −2.5
CCN(CC)C(=O)[C@@]1(c2ccccc2)C[C@H]1CN [levomilnacipram],placebo subtracted difference in (LSM) change from baseline MADRS total score,MDD patients,−3.1 to −4.9
"CN(C)CCc1c[nH]c2cccc(O)c12 [psilocin, 4-hydroxy-N,N-dimethyltryptamine]",psilocin Cmax with no change in list of complaints + 5D-ASC,[1],1.83 ng/mL
same,Cmax,[2],51.7 ng/mL
same,Cmax,[3],343 ng/mL
same,psilocin plasma concentration predicted for VAS-Any drug effect scores above 70 mm,[4]; linear concentration-effect model,about 17.9 ng/ml
same,psilocin Cmax / plasma concentration for VAS - Any drug effect: 20,[4]; [5],5.08 ng/mL
same,psilocin Cmax / plasma concentration for VAS - Any drug effect: 40,[4]; [5],10.2 ng/mL
N#Cc1ccc2[nH]cc(CCCCN3CCN(c4ccc5oc(C(N)=O)cc5c4)CC3)c2c1 [vilazodone hydrochloride],placebo subtracted difference in (LSM) change from baseline MADRS total score,MDD patients,−2.5 to −5.1
Cc1ccc(Sc2ccccc2N2CCNCC2)c(C)c1 [vortioxetine],difference in mean change from baseline of MADRS scores between placebo and drug,"MDD patients; 20 mg, meta-analysis of 11 placebo-controlled trials",4.57
same,placebo subtracted difference in (LSM) change from baseline MADRS total score,MDD patients,−2.8 to −5.9
